Experimental data as given in PubChem BioAssay (NCI).
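Cultured in 96-well plates, cells were exposed to test compound for 48 hours across five concentrations. Definition used: TGI = concentration required for complete inhibition of growth.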

Legend:
Experiment in all cases: NCI-60 cell line screen, 48 h
SF-295 CNS = test system: SF-295 CNS
IGROV1 ovarian = test system: IGROV1 ovarian
HCC-2998 colon = test system: HCC-2998 colon
MDA-N = test system: MDA-N
SR leukemia = test system: SR leukemia
HCT-15 colon = test system: HCT-15 colon
MCF7 breast = test system: MCF7 breast
NCI/ADR-RES ovarian = test system: NCI/ADR-RES ovarian
NCI-H23 lung = test system: NCI-H23 lung
NCI-H226 lung = test system: NCI-H226 lung
HT29 colon = test system: HT29 colon
BT-549 breast = test system: BT-549 breast
CCRF-CEM leukemia = test system: CCRF-CEM leukemia
HCT-116 colon = test system: HCT-116 colon
SF-268 CNS = test system: SF-268 CNS
SNB-75 CNS = test system: SNB-75 CNS
MOLT-4 leukemia = test system: MOLT-4 leukemia
SNB-19 CNS = test system: SNB-19 CNS
SW-620 colon = test system: SW-620 colon
HOP-62 NSCLC = test system: HOP-62 NSCLC
DU-145 prostate = test system: DU-145 prostate
SN12C renal = test system: SN12C renal
SK-MEL-2 melanoma = test system: SK-MEL-2 melanoma
NCI-H460 lung = test system: NCI-H460 lung
COLO 205 colon = test system: COLO 205 colon
NCI-H522 lung = test system: NCI-H522 lung
ACHN renal = test system: ACHN renal
LOX IMVI melanoma = test system: LOX IMVI melanoma
SK-MEL-5 melanoma = test system: SK-MEL-5 melanoma
A498 renal = test system: A498 renal
U251 CNS = test system: U251 CNS
OVCAR-5 ovarian = test system: OVCAR-5 ovarian
K-562 leukemia = test system: K-562 leukemia
TK-10 renal = test system: TK-10 renal
HOP-92 NSCLC = test system: HOP-92 NSCLC
OVCAR-3 ovarian = test system: OVCAR-3 ovarian
SK-MEL-28 melanoma = test system: SK-MEL-28 melanoma
HS 578T breast = test system: HS 578T breast
EKVX NSCLC = test system: EKVX NSCLC
UACC-62 melanoma = test system: UACC-62 melanoma
MDA-MB-435 = test system: MDA-MB-435
T-47D breast = test system: T-47D breast
SF-539 CNS = test system: SF-539 CNS
UO-31 renal = test system: UO-31 renal
A549 NSCLC = test system: A549 NSCLC
CAKI-1 renal = test system: CAKI-1 renal
OVCAR-8 ovarian = test system: OVCAR-8 ovarian
KM12 colon = test system: KM12 colon
HL-60(TB) leukemia = test system: HL-60(TB) leukemia
M14 melanoma = test system: M14 melanoma
UACC-257 melanoma = test system: UACC-257 melanoma
MDA-MB-231 breast = test system: MDA-MB-231 breast
MALME-3M melanoma = test system: MALME-3M melanoma
PC-3 prostate = test system: PC-3 prostate
786-0 renal = test system: 786-0 renal
OVCAR-4 ovarian = test system: OVCAR-4 ovarian
RXF 393 renal = test system: RXF 393 renal
SK-OV-3 ovarian = test system: SK-OV-3 ovarian
RPMI-8226 leukemia = test system: RPMI-8226 leukemia

## COc1ccc(-c2nc3c(C(=O)NCCN(C)C)cccc3c3ccccc23)cc1
SF-295 CNS
  TGI: 4.83 µM
IGROV1 ovarian
  TGI: 14.6 µM
HCC-2998 colon
  TGI: 3.85 µM
MDA-N
  TGI: 5.45 µM
SR leukemia
  TGI: 6.96 µM
HCT-15 colon
  TGI: 9.46 µM
MCF7 breast
  TGI: 8.65 µM
NCI/ADR-RES ovarian
  TGI: 45.4 µM
NCI-H23 lung
  TGI: 19.6 µM
NCI-H226 lung
  TGI: 17.1 µM
HT29 colon
  TGI: 7.78 µM
BT-549 breast
  TGI: 22.3 µM
CCRF-CEM leukemia
  TGI: 10.3 µM
HCT-116 colon
  TGI: 11.6 µM
SF-268 CNS
  TGI: 24.5 µM
SNB-75 CNS
  TGI: 17.6 µM
MOLT-4 leukemia
  TGI: 6.55 µM
SNB-19 CNS
  TGI: 11.7 µM
SW-620 colon
  TGI: 14.5 µM
HOP-62 NSCLC
  TGI: 13.3 µM
DU-145 prostate
  TGI: 17.4 µM
SN12C renal
  TGI: 16.9 µM
SK-MEL-2 melanoma
  TGI: 18.4 µM
NCI-H460 lung
  TGI: 10.9 µM
COLO 205 colon
  TGI: 4.51 µM
NCI-H522 lung
  TGI: 8.82 µM
ACHN renal
  TGI: 12.8 µM
LOX IMVI melanoma
  TGI: 2.94 µM
SK-MEL-5 melanoma
  TGI: 3.3 µM
A498 renal
  TGI: 8.96 µM
U251 CNS
  TGI: 10.1 µM
OVCAR-5 ovarian
  TGI: 18.2 µM
K-562 leukemia
  TGI: 4.68 µM
TK-10 renal
  TGI: 19.8 µM
HOP-92 NSCLC
  TGI: 12.3 µM
OVCAR-3 ovarian
  TGI: 16.6 µM
SK-MEL-28 melanoma
  TGI: 3.71 µM
HS 578T breast
  TGI: 28.9 µM
EKVX NSCLC
  TGI: 19.6 µM
UACC-62 melanoma
  TGI: 4.66 µM
MDA-MB-435
  TGI: 5.16 µM
T-47D breast
  TGI: 29.7 µM
SF-539 CNS
  TGI: 4.87 µM
UO-31 renal
  TGI: 5.16 µM
A549 NSCLC
  TGI: 12.6 µM
CAKI-1 renal
  TGI: 7.05 µM
OVCAR-8 ovarian
  TGI: 20.6 µM
KM12 colon
  TGI: 14.9 µM
HL-60(TB) leukemia
  TGI: 7 µM
M14 melanoma
  TGI: 3.93 µM
UACC-257 melanoma
  TGI: 3.56 µM
MDA-MB-231 breast
  TGI: 12.2 µM
MALME-3M melanoma
  TGI: 8.7 µM
PC-3 prostate
  TGI: 13.7 µM
786-0 renal
  TGI: 6.86 µM
OVCAR-4 ovarian
  TGI: 12.5 µM

## Cn1cc(-c2nnc(-c3ccc(Cl)cc3)[nH]c2=O)c2ccccc21
SF-295 CNS
  TGI: > 28.3 µM
IGROV1 ovarian
  TGI: > 100 µM
MDA-N
  TGI: 1.83 µM
SR leukemia
  TGI: > 100 µM
HCT-15 colon
  TGI: > 100 µM
MCF7 breast
  TGI: > 39.6 µM
RXF 393 renal
  TGI: > 22.1 µM
NCI/ADR-RES ovarian
  TGI: 8.03 µM
NCI-H23 lung
  TGI: > 100 µM
SK-OV-3 ovarian
  TGI: > 69.8 µM
NCI-H226 lung
  TGI: 35.4 µM
HT29 colon
  TGI: > 24.6 µM
BT-549 breast
  TGI: > 100 µM
CCRF-CEM leukemia
  TGI: > 22.7 µM
HCT-116 colon
  TGI: > 66.3 µM
SF-268 CNS
  TGI: > 100 µM
SNB-75 CNS
  TGI: 35.1 µM
MOLT-4 leukemia
  TGI: 98.8 µM
RPMI-8226 leukemia
  TGI: 44.7 µM
SNB-19 CNS
  TGI: > 54.7 µM
SW-620 colon
  TGI: > 64.6 µM
HOP-62 NSCLC
  TGI: > 75.8 µM
DU-145 prostate
  TGI: > 51.8 µM
SN12C renal
  TGI: > 64 µM
SK-MEL-2 melanoma
  TGI: > 37.3 µM
NCI-H460 lung
  TGI: > 44.1 µM
COLO 205 colon
  TGI: > 100 µM
NCI-H522 lung
  TGI: 6.16 µM
ACHN renal
  TGI: > 76.1 µM
LOX IMVI melanoma
  TGI: > 100 µM
SK-MEL-5 melanoma
  TGI: > 43.7 µM
A498 renal
  TGI: > 61 µM
U251 CNS
  TGI: > 37.5 µM
OVCAR-5 ovarian
  TGI: > 100 µM
K-562 leukemia
  TGI: > 100 µM
TK-10 renal
  TGI: 42.7 µM
HOP-92 NSCLC
  TGI: > 100 µM
OVCAR-3 ovarian
  TGI: 14.9 µM
SK-MEL-28 melanoma
  TGI: > 100 µM
HS 578T breast
  TGI: > 100 µM
EKVX NSCLC
  TGI: > 64.9 µM
UACC-62 melanoma
  TGI: > 51.9 µM
MDA-MB-435
  TGI: 1.4 µM
T-47D breast
  TGI: > 100 µM
UO-31 renal
  TGI: > 47 µM
A549 NSCLC
  TGI: > 100 µM
CAKI-1 renal
  TGI: > 100 µM
OVCAR-8 ovarian
  TGI: > 100 µM
KM12 colon
  TGI: > 23.9 µM
HL-60(TB) leukemia
  TGI: > 24 µM
M14 melanoma
  TGI: > 100 µM
UACC-257 melanoma
  TGI: > 24.3 µM
MDA-MB-231 breast
  TGI: > 84.9 µM
MALME-3M melanoma
  TGI: > 25.8 µM
PC-3 prostate
  TGI: > 78.7 µM
786-0 renal
  TGI: > 44.6 µM
OVCAR-4 ovarian
  TGI: > 100 µM
